According to patent publication US11407757B2, “Heterocycle compounds as Tyro3, Axl and MerTK (TAM) family of receptor tyrosine kinase inhibitors” (Development Center for Biotechnology, priority 2017, dated 2022):
Read-outs that look alike come from different tables or passages of the source.

Legend:
Mer kinase = Mer kinase (Homo sapiens (Human), UniProt Q12866); experiment: Mer kinase assay (AlphaScreen); details: read-out: Mer kinase IC50; activity level class
Met kinase = Met kinase (Homo sapiens, UniProt P08581); experiment: Met kinase assay (AlphaScreen); assay type: biochemical
Axl kinase = Axl kinase (Homo sapiens (Human), UniProt P30530); experiment: Axl kinase assay (AlphaScreen); assay type: biochemical; details: activity level class
[1] = tested on: Gas6 ligand induced AKT phosphorylation; experiment: Gas6 ligand induced AKT phosphorylation, western blotting in H1299 NSCLC cells; assay type: cell-based; details: Homo sapiens, NCI-H1299, at 100 nM treatment, 100 ng/mL Gas6, read-out: inhibition activity against Gas6 ligand induced AKT phosphorylation
[2] = activity level class, read-out: Met kinase IC50

Question: How did the IC50 (Mer kinase) turn out when `COCCOc1nc(Nc2ccc(CN3CCN(C)CC3)cc2)nc2[nH]cc(-c3ccc(OCc4cccnc4)cc3F)c12` [Compound 95, 5-(2-fluoro-4-(pyridin-3-ylmethoxy)phenyl)-4-(2-methoxyethoxy)-N-(4-((4-methylpiperazin-1-yl)methyl)phenyl)-7H-pyrrolo[2,3-d]pyrimidin-2-amine] was run?
Answer: Its IC50 is over 1000 nM.

Question: And the IC50 (Met kinase; [2])?
Answer: The IC50 was over 1000 nM.

Question: And the IC50 (Axl kinase)?
Answer: Its IC50 is under 30 nM.

Question: Which inhibition at 0.1 µM [1] does the source give for `Cc1nc2ccc(-c3c[nH]c4nc(Nc5ccc(CN6CCN(C)CC6)cc5)nc(OCC5CCCO5)c34)cc2o1` (stereo not shown) [Compound 67, 5-(2-methylbenzo[d]oxazol-6-yl)-N-(4-((4-methylpiperazin-1-yl)methyl)phenyl)-4-((tetrahydrofuran-2-yl)methoxy)-7H-pyrrolo [2,3-d]pyrimidin-2-amine] here?
Answer: The inhibition at 0.1 µM was over 50%.

Question: And the IC50 (Mer kinase)?
Answer: The IC50 was over 1000 nM.

Question: What about the IC50 (Met kinase; [2]) of the same compound?
Answer: The IC50 was over 1000 nM.

Question: What about the IC50 (Axl kinase) of the same compound?
Answer: Its IC50 is under 30 nM.

Question: How did the inhibition at 0.1 µM [1] turn out when `COCCOc1nc(Nc2ccc(CN3CCN(C)CC3)cc2)nc2[nH]cc(-c3ccc(NC(=O)c4cc(C)n(C)n4)cc3)c12` [Compound 76, N-(4-(4-(2-methoxyethoxy)-2-((4-((4-methylpiperazin-1-yl)methyl)phenyl)amino)-7H-pyrrolo[2,3-d]pyrimidin-5-yl)phenyl)-1,5-dimethyl-7H-pyrazole-3-carboxamide] was run?
Answer: Its inhibition at 0.1 µM is over 50%.

Question: And the IC50 (Mer kinase)?
Answer: The IC50 was over 1000 nM.

Question: And the IC50 (Met kinase; [2])?
Answer: The IC50 was over 1000 nM.

Question: And the IC50 (Axl kinase)?
Answer: The IC50 was under 30 nM.

Question: With `COCCOc1nc(Nc2ccc(CN3CCC(C)CC3)cc2)nc2[nH]cc(-c3ccc(OCc4ccccn4)cc3F)c12` [Compound 109, 5-(2-fluoro-4-(pyridin-2-ylmethoxy)phenyl)-4-(2-methoxyethoxy)-N-(4-((4-methylpiperidin-1-yl)methyl)phenyl)-7H-pyrrolo[2,3-d]pyrimidin-2-amine] as the compound, how does the inhibition at 0.1 µM [1] read?
Answer: Its inhibition at 0.1 µM is over 50%.

Question: And the IC50 (Mer kinase)?
Answer: The IC50 was under 30 nM.

Question: And the IC50 (Met kinase)?
Answer: Its IC50 is 400 to 1000 nM.

Question: What about the IC50 (Axl kinase) of the same compound?
Answer: The IC50 was under 30 nM.

Question: How did the IC50 (Mer kinase) turn out when `COc1nc(Nc2ccc(CN3CCC(C)CC3)cc2)nc2[nH]cc(-c3ccc(NS(=O)(=O)c4cc(F)ccc4F)cc3)c12` [Compound 2, 2,5-difluoro-N-(4-(4-methoxy-2-((4-((4-methylpiperidin-1-yl)methyl)phenyl)amino)-7H-pyrrolo[2,3-d]pyrimidin-5-yl)phenyl)benzene-sulfonamide] was run?
Answer: The IC50 was under 30 nM.

Question: What about the IC50 (Met kinase) of the same compound?
Answer: The IC50 was 100 to 400 nM.

Question: What about the IC50 (Axl kinase) of the same compound?
Answer: Its IC50 is under 30 nM.

Question: How did the IC50 (Mer kinase) turn out when `COCCOc1nc(Nc2ccc(CN3CCN(C)CC3)cc2)nc2[nH]cc(-c3ccc(C(F)(F)F)cc3)c12` [Compound 84, 4-(2-methoxyethoxy)-N-(4-((4-methylpiperazin-1-yl)methyl)phenyl)-5-(4-(trifluoromethyl)phenyl)-7H-pyrrolo[2,3-d]pyrimidin-2-amine] was run?
Answer: The IC50 was over 1000 nM.

Question: Which IC50 (Mer kinase) does the source give for `COc1nc(Nc2ccc(CN3CCN(C)CC3)cc2)nc2[nH]cc(-c3ccc(OCc4ccccc4)cc3F)c12` [Compound 46, 5-(4-(benzyloxy)-2-fluorophenyl)-4-methoxy-N-(4-((4-methylpiperazin-1-yl)methyl)phenyl)-7H-pyrrolo[2,3-d]pyrimidin-2-amine] here?
Answer: Its IC50 is over 1000 nM.

Question: `COCCOc1nc(Nc2ccc(CN3CCN(C)CC3)cc2)nc2[nH]cc(-c3ccc(S(=O)(=O)N4CCC4)cc3)c12` [Compound 94, 5-(4-(azetidin-1-ylsulfonyl)phenyl)-4-(2-methoxyethoxy)-N-(4-((4-methylpiperazin-1-yl)methyl)phenyl)-7H-pyrrolo[2,3-d]pyrimidin-2-amine] was tested. Which IC50 (Mer kinase) did it give?
Answer: Its IC50 is over 1000 nM.

Question: What about the IC50 (Met kinase; [2]) of the same compound?
Answer: Its IC50 is over 1000 nM.

Question: What about the IC50 (Axl kinase) of the same compound?
Answer: Its IC50 is under 30 nM.

Question: Which results are given for `COCCOc1nc(Nc2ccc(CN3CCN(C)CC3)cc2)nc2[nH]cc(-c3ccc(O)cc3F)c12` [Compound 96, 3-fluoro-4-(4-(2-methoxyethoxy)-2-((4-((4-methylpiperazin-1-yl)methyl)phenyl)amino)-7H-pyrrolo[2,3-d]pyrimidin-5-yl)phenol]?
Answer: IC50 (Mer kinase): < 30 nM; IC50 (Met kinase): 100 to 400 nM; IC50 (Axl kinase): < 30 nM

Question: For `COCCOc1nc(Nc2ccc(CN3CCN(C)CC3)cc2)nc2[nH]cc(-c3ccc(OCc4ccncc4)cc3F)c12` [Compound 93, 5-(2-fluoro-4-(pyridin-4-ylmethoxy)phenyl)-4-(2-methoxyethoxy)-N-(4-((4-methylpiperazin-1-yl)methyl)phenyl)-7H-pyrrolo[2,3-d]pyrimidin-2-amine], which inhibition at 0.1 µM [1] is on record?
Answer: Its inhibition at 0.1 µM is over 50%.

Question: And the IC50 (Mer kinase)?
Answer: Its IC50 is over 1000 nM.

Question: And the IC50 (Met kinase; [2])?
Answer: Its IC50 is over 1000 nM.

Question: What about the IC50 (Axl kinase) of the same compound?
Answer: Its IC50 is under 30 nM.

Question: How did the IC50 (Mer kinase) turn out when `COCCOc1nc(Nc2ccc(CN3CCN(C)CC3)cc2)nc2[nH]cc(-c3ccc(S(=O)(=O)N4CC(C)CC(C)C4)cc3)c12` (stereo not shown) [Compound 87, 5-(4-((3,5-dimethylpiperidin-1-yl)sulfonyl)phenyl)-4-(2-methoxyethoxy)-N-(4-((4-methylpiperazin-1-yl)methyl)phenyl)-7H-pyrrolo[2,3-d]pyrimidin-2-amine] was run?
Answer: The IC50 was over 1000 nM.

Question: With `COc1ccc(-c2c[nH]c3nc(Nc4ccc(CN5CCN(C)CC5)cc4)nc(OC)c23)cc1` [Compound 20, 4-methoxy-5-(4-methoxyphenyl)-N-(4-((4-methylpiperazin-1-yl)methyl)phenyl)-7H-pyrrolo[2,3-d] pyrimidin-2-amine] as the compound, how does the IC50 (Mer kinase) read?
Answer: The IC50 was over 1000 nM.

Question: For `COCCOc1nc(Nc2ccc(CN3CCN(C)CC3)cc2)nc2[nH]cc(-c3ccc(S(=O)(=O)C(C)C)cc3)c12` [Compound 89, 5-(4-(isopropylsulfonyl)phenyl)-4-(2-methoxyethoxy)-N-(4-((4-methylpiperazin-1-yl)methyl)phenyl)-7H-pyrrolo[2,3-d]pyrimidin-2-amine], which IC50 (Mer kinase) is on record?
Answer: Its IC50 is over 1000 nM.

Question: With `COc1cc(-c2c[nH]c3nc(Nc4ccc(CN5CCC(C)CC5)cc4)nc(OC)c23)ccc1OCc1ccccc1` [Compound 44, 5-(4-(benzyloxy)-3-methoxyphenyl)-4-methoxy-N-(4-((4-methylpiperidin-1-yl)methyl)phenyl)-7H-pyrrolo[2,3-d] pyrimidin-2-amine] as the compound, how does the IC50 (Mer kinase) read?
Answer: Its IC50 is over 1000 nM.

Question: Which IC50 (Mer kinase) does the source give for `COCCOc1nc(Nc2ccc(CN3CCN(C)CC3)cc2)nc2[nH]cc(-c3ccc(S(=O)(=O)N4CCOCC4)cc3)c12` [Compound 88, 4-(2-methoxyethoxy)-N-(4-((4-methylpiperazin-1-yl)methyl)phenyl)-5-(4-(morpholinosulfonyl)phenyl)-7H-pyrrolo[2,3-d]pyrimidin-2-amine] here?
Answer: The IC50 was over 1000 nM.

Question: For `COCCOc1nc(Nc2ccc(CN3CCN(C)CC3)cc2)nc2[nH]cc(-c3ccc(OCc4cncc(OC)c4)cc3F)c12` [Compound 100, 5-(2-fluoro-4-((5-methoxypyridin-3-yl)methoxy)phenyl)-4-(2-methoxyethoxy)-N-(4-((4-methylpiperazin-1-yl)methyl)phenyl)-7H-pyrrolo[2,3-d]pyrimidin-2-amine], which IC50 (Mer kinase) is on record?
Answer: The IC50 was over 1000 nM.

Question: And the IC50 (Met kinase; [2])?
Answer: Its IC50 is over 1000 nM.

Question: What about the IC50 (Axl kinase) of the same compound?
Answer: The IC50 was under 30 nM.

Question: For `COCCOc1nc(Nc2ccc(CN3CCN(C)CC3)cc2)nc2[nH]cc(-c3ccc(S(=O)(=O)N4CCCCC4)cc3)c12` [Compound 98, 4-(2-methoxyethoxy)-N-(4-((4-methylpiperazin-1-yl)methyl)phenyl)-5-(4-(piperidin-1-ylsulfonyl)phenyl)-7H-pyrrolo[2,3-d]pyrimidin-2-amine], which IC50 (Mer kinase) is on record?
Answer: Its IC50 is over 1000 nM.

Question: And the IC50 (Met kinase)?
Answer: Its IC50 is 400 to 1000 nM.

Question: What about the IC50 (Axl kinase) of the same compound?
Answer: Its IC50 is under 30 nM.

Question: How did the IC50 (Mer kinase) turn out when `COCCOc1nc(Nc2ccc(CN3CCN(C)CC3)cc2)nc2[nH]cc(-c3ccc(OCc4ccccc4)cc3F)c12` [Compound 90, 5-(4-(benzyloxy)-2-fluorophenyl)-4-(2-methoxyethoxy)-N-(4-((4-methylpiperazin-1-yl)methyl)phenyl)-7H-pyrrolo[2,3-d]pyrimidin-2-amine] was run?
Answer: The IC50 was over 1000 nM.

Question: Which IC50 (Mer kinase) does the source give for `COc1nc(Nc2ccc(CN3CCC(N)CC3)cc2)nc2[nH]cc(-c3ccc(S(=O)(=O)N(C)C)cc3)c12` [Compound 6, 4-(2-((4-((4-aminopiperidin-1-yl)methyl)phenyl)amino)-4-methoxy-7H-pyrrolo[2,3-d]pyrimidin-5-yl)-N,N-dimethylbenzene-sulfonamide] here?
Answer: The IC50 was over 1000 nM.

Question: Which IC50 (Mer kinase) does the source give for `COc1nc(Nc2ccc(CN3CCC(C)CC3)cc2)nc2[nH]cc(-c3ccc(NC(=O)c4cc(C)n(C)n4)cc3)c12` [Compound 26, N-(4-(4-methoxy-2-((4-((4-methylpiperidin-1-yl)methyl)phenyl)amino)-7H-pyrrolo[2,3-d]pyrimidin-5-yl)phenyl)-1,5-dimethyl-7H-pyrazole-3-carboxamide] here?
Answer: Its IC50 is over 1000 nM.

Question: Which IC50 (Mer kinase) does the source give for `COCCOc1nc(Nc2ccc(CN3CCN(C)CC3)cc2)nc2[nH]cc(-c3ccc(S(=O)(=O)N4CCN(C)CC4)cc3)c12` [Compound 102, 4-(2-methoxyethoxy)-N-(4-((4-methylpiperazin-1-yl)methyl)phenyl)-5-(4-((4-methylpiperazin-1-yl)sulfonyl)phenyl)-7H-pyrrolo[2,3-d]pyrimidin-2-amine] here?
Answer: Its IC50 is over 1000 nM.

Question: For `COCCOc1nc(Nc2ccc(CN3CCN(C)CC3)cc2)nc2[nH]cc(-c3ccc(OCc4cnccc4OC)cc3F)c12` [Compound 99, 5-(2-fluoro-4-((4-methoxypyridin-3-yl)methoxy)phenyl)-4-(2-methoxyethoxy)-N-(4-((4-methylpiperazin-1-yl)methyl)phenyl)-7H-pyrrolo[2,3-d]pyrimidin-2-amine], which IC50 (Mer kinase) is on record?
Answer: Its IC50 is over 1000 nM.
